US9782387B2, “Compositions and methods for treating hematological malignancies” (Tel HaShomer Medical Research Infrastructure and Services …, priority 2013, dated 2017)

Assays:
RPMIS MM cells = assay: Xenograft murine model; format: in vivo, SCID mice; conditions: 0.5 mg/kg i.p.; not reached after follow-up of 60 days; control 28 days
Method: RPMIS cells (7×10^6 mouse in 100 μl of PBS) were injected subcutaneously in SCID mice. Mice (n=10 per group) received STK405759 (0.5 mg/kg in 0.1 ml PBS) or control vehicle (0.1 ml PBS), by intraperitoneal (i.p.) administration once a day for 5 days. FIG. 6A—Tumor diameters were measured every 2-3 days with caliper, and tumor volumes were calculated using the formula of the volume of an ellipse: ½ (length×width^2). […] FIG. 6B—Kaplan-Meier analysis of overall survival confirmed that STK405759 increased survival compared with control mice. […] FIG. 6D—Induction of apoptosis and cell death in tumors excised from vehicle or STK405759 (0.5 mg/kg) treated animals are shown by TUNEL assay. Photomicrographs show apoptotic cells (brown) using light microscopy (×20 and ×40 magnification).
Male SCID mice (6-8 week old) were maintained in accordance with Institutional Animal Care Use Committee guidelines. […]
Mice were monitored every 2-3 d for changes in body weight and tumor burden. Tumor volumes were measured by a caliper every alternate day and calculated using the following formula: length×width^2×0.5. […] Following sacrifice, tumors were immediately collected and evaluated for induction of apoptosis and cell death by TdT-mediated dUTP nick end labeling (TUNEL) assay.

[1] = Xenograft murine model, body weight and toxicity; format: in vivo; conditions: 0.5 mg/kg i.p., during treatment
Method: Mice were monitored every 2-3 d for changes in body weight and tumor burden. Tumor volumes were measured by a caliper every alternate day and calculated using the following formula: length×width^2×0.5. Mice were sacrificed in accordance with institutional guidelines when tumors reached 1.5 cm^3 or if the mice appeared moribund, to prevent unnecessary morbidity to the mice. Following sacrifice, tumors were immediately collected and evaluated for induction of apoptosis and cell death by TdT-mediated dUTP nick end labeling (TUNEL) assay.

[2] = test system: HS-5 bone marrow stromal cells; assay: CFSE/PI FACS viability in co-culture, stromal cells; format: cell-based, human; conditions: 48 h
Method: FIGS. 2A-D are graphs showing that STK405759 overcomes the growth stimulatory effect of BMSCs. IL-6 or IGF-1 on MM cell growth. FIG. 2A-B—RPMIS cells were stained with CFSE, co-cultured with HS-5 and exposed to STK405759 (70 nM) for 48 h. The cells were contrastained with PI to distinguish live from nonviable cells using FACS analysis. The values of the fraction of nonviable (CFSE^−PI^+) HS-5 cells within the entire population of HS-5 cells (CFSE^−) cultured alone or with RPMIS cells, and the fraction of (CFSE^+PI^+) RPMIS cells within the entire population of RPMIS cells (CFSE) cultured alone or with HS-5 cells are presented as a function of the STK405759 concentrations. FIGS. 2C-D—RPMIS cells were cultured for 48 hours at the indicated concentrations of STK405759 in the presence or absence of IL-6 (5 or 10 ng/ml) or IGF-1 (10 or 30 ng/ml). Data presented are from three independent experiments and presented as means±SE.
Since BMSC trigger and maintain MM cell homing, proliferation, and drug resistance, the present inventors have assessed whether MM cell sensitivity to STK405759 is attenuated by co-culture with bone marrow stromal cells. In order to quantify viability of MM cells cultured alone or co-cultured with HS-5 bone marrow stromal cells. MM cells were stained with CFSE. […]

[3] = test system: human multiple myeloma (MM) cell lines; assay: Cell viability XTT assay, MM cell lines; format: cell-based; conditions: each MM cell line
Method: The following panel of human multiple myeloma (MM) cell lines was used: RPMI-S (ATCC® CCL-155), RPMI-LR5, RPMI-MR20, MM.1S (ATCC® CRL-2974). OPM1, OPM-2, U266 ATCC® TIB-196 and CAG. The human immortalized bone marrow stromal cell (BMSC) line HS-5 was obtained from ATCC® CRL-11882. MM cell lines were grown in RPMI and HS-5 in DMEM, supplemented with 10% fetal calf serum, 2 mM L-glutamine, 100 units/mL penicillin and 100 μg/mL streptomycin (Biological Industries, Beit Haemek, Israel), and incubated in a humidified atmosphere of 5% CO2 and 95% air at 37° C.
MM cell lines were plated at a density of 2×10^4 cells per well in 96-wells and treated with different concentrations of STK405759. For patient samples, bone marrow aspirates from MM patients were collected, mononuclear cells were separated by Ficoll density gradient centrifugation and myeloma cells selected using CD138 microbeads (Miltenyi Biotec). Purified CD138^+ cells from patients were plated at a density of 2×10^4 cells per well and treated for 48 h with different concentrations of STK405759. Peripheral blood samples were processed by Ficoll density gradient centrifugation to isolate peripheral blood mononuclear cells (PBMCs). […] Cell viability was measured using XTT cell proliferation Kit (Biological Industries) according to manufacture instructions. […]

[4] = test system: peripheral blood mononuclear cells (PBMCs); assay: Cell viability XTT assay, PBMCs; format: cell-based, human; conditions: PBMC from the same patients and from healthy donors, 48 h
Method: (§1) MM cell lines were plated at a density of 2×10^4 cells per well in 96-wells and treated with different concentrations of STK405759. For patient samples, bone marrow aspirates from MM patients were collected, mononuclear cells were separated by Ficoll density gradient centrifugation and myeloma cells selected using CD138 microbeads (Miltenyi Biotec). Purified CD138^+ cells from patients were plated at a density of 2×10^4 cells per well and treated for 48 h with different concentrations of STK405759. Peripheral blood samples were processed by Ficoll density gradient centrifugation to isolate peripheral blood mononuclear cells (PBMCs). PBMCs were plated at 2×10^4 cells per well and exposed to different concentrations of STK405759 for 48 h. Cell viability was measured using XTT cell proliferation Kit (Biological Industries) according to manufacture instructions.

[5] = test system: affinity-purified CD138+ cells from bone marrow samples of MM patients; assay: Cell viability XTT assay, primary patient MM cells; format: cell-based, human; conditions: 2 MM patients, 48 h
Method: as §1

RPMIS cells = assay: Combination XTT assay, Chou-Talalay, RPMIS; format: cell-based, human; design: key: CI <1 synergism, =1 additive, >1 antagonism (Chou-Talalay); conditions: 48 h
Method: (§2) Combinations of novel and/or conventional anti-MM agents may achieve higher clinical response rates than a single agent(s).
(§3) CI value <1, =1, >1 indicates synergism, additive effect, and antagonism, respectively, (n=3 independent experiments). The CI values were calculated by the Chou-Talalay method based on the median-effect equation and the classic isobologram equation [22], using compusyn computer software.

MM.1S cells = assay: Combination XTT assay, Chou-Talalay, MM.1S; format: cell-based, human; design: key: CI <1 synergism, =1 additive, >1 antagonism (Chou-Talalay); conditions: 48 h
Method: as §2, §3

Structure (SMILES): CCCCCOC(=O)c1[nH]c2c(c1C)C(=O)CC(c1ccco1)C2 (stereo not shown) [STK405759]
- median overall survival (RPMIS MM cells): > 60 days
- changes in weight or other signs of potential toxicity [1]: No significant changes
- viability of HS-5 stromal cells [2]: unaffected
- IC50 [3]: < 0.044 µM
- cytotoxic effect on PBMC [4]: non responsive to the cytotoxic effect
- cytotoxic response of primary MM cells [5]: dose-dependent cytotoxic response

Structure (SMILES): C[C@@H]1C[C@H]2[C@@H]3CCC4=CC(=O)C=C[C@]4(C)[C@@]3(F)[C@@H](O)C[C@]2(C)[C@@]1(O)C(=O)CO [DEX, dexamethasone]
- Combination Index (RPMIS cells; STK405759 45 nM + DEX 1 nM): 0.76 ± 0.06
- Combination Index (RPMIS cells; STK405759 45 nM + DEX 5 nM): 0.84 ± 0.03
- Combination Index (MM.1S cells; STK405759 45 nM + DEX 1 nM): 0.76 ± 0.15
- Combination Index (MM.1S cells; STK405759 45 nM + DEX 5 nM): 0.63 ± 0.09

Structure (SMILES): Nc1cccc2c1CN(C1CCC(=O)NC1=O)C2=O (stereo not shown) [LEN, lenalidomide]
- Combination Index (RPMIS cells; STK405759 45 nM + LEN 5 μM): 0.77 ± 0.09
- Combination Index (RPMIS cells; STK405759 45 nM + LEN 25 μM): 0.74 ± 0.05
- Combination Index (MM.1S cells; STK405759 45 nM + LEN 5 μM): 0.62 ± 0.09
- Combination Index (MM.1S cells; STK405759 45 nM + LEN 25 μM): 0.58 ± 0.09

Structure (SMILES): CC(C)C[C@H](NC(=O)[C@H](Cc1ccccc1)NC(=O)c1cnccn1)B(O)O [BTZ, bortezomib]
- Combination Index (RPMIS cells; STK405759 45 nM + BTZ 1 nM): 0.88 ± 0.02
- Combination Index (RPMIS cells; STK405759 45 nM + BTZ 5 nM): 0.78 ± 0.08
- Combination Index (MM.1S cells; STK405759 45 nM + BTZ 1 nM): 0.62 ± 0.14
- Combination Index (MM.1S cells; STK405759 45 nM + BTZ 5 nM): 0.58 ± 0.02

Structure (SMILES): COc1cccc2c1C(=O)c1c(O)c3c(c(O)c1C2=O)C[C@@](O)(C(=O)CO)C[C@@H]3O[C@H]1C[C@H](N)[C@H](O)[C@H](C)O1 [DOXO, doxorubicin]
- Combination Index (RPMIS cells; STK405759 45 nM + DOXO 10 nM): 1.44 ± 0.01
- Combination Index (RPMIS cells; STK405759 45 nM + DOXO 30 nM): 1.63 ± 0.10
- Combination Index (MM.1S cells; STK405759 45 nM + DOXO 10 nM): 1.30 ± 0.06
- Combination Index (MM.1S cells; STK405759 45 nM + DOXO 30 nM): 1.54 ± 0.08
